Experimental data reported in patent publication US11014915B2, “Selective estrogen receptor degrader” (SUN PHARMA ADVANCED RESEARCH COMPANY LIMITED, priority 2019, dated 2021).

Assays:
[1] = biological target: T1, ER-α in MCF-7 cells harboring ER wild type (Homo sapiens, UniProt P03372); assay: ER-α degradation (SERD) assay, MCF-7 wild type; assay type: cell-based; settings: MCF-7 Wt, 1 nM; for % of ER-α remaining at 1 nM: 4 days, western blot, vehicle control as 100%
T1 construct: evaluated in MCF-7 cells harboring ER wild type; endogenous in cells; host or cells: MCF-7
T1 sequence (P03372 1-595): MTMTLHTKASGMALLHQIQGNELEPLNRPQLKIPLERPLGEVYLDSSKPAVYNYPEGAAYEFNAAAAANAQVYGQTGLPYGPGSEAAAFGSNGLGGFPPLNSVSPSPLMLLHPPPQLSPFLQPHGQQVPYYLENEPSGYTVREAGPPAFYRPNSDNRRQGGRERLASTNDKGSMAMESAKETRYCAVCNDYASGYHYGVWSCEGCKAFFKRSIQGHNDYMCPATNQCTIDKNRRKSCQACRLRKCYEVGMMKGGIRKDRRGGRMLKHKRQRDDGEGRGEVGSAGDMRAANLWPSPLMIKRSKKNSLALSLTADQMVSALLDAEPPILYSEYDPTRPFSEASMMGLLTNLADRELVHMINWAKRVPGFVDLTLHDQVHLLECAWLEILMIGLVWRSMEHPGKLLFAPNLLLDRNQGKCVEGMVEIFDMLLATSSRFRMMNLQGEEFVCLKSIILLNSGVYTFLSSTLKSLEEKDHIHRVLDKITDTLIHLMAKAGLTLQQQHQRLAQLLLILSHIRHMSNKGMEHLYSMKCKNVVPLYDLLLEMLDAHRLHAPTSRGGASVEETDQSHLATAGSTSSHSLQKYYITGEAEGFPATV
Method: Selective Estrogen Receptor Degradation (SERD) Assay:
The SERD activity for the test compounds was evaluated in MCF-7 cells harboring ER wild type, and MCF-7 cells harboring mutant ER (WT/D538G and WT/Y537S). Briefly, cells were plated in phenol red free RPMI1640 medium supplemented with 5% charcoal stripped fetal bovine serum. The seeding density was 40000 cells/well for MCF-7 WT and MCF-7 D538G and 50000 cells/well MCF-7 Y537S in a 48-well plate. Following overnight incubation, the cells were treated with varying concentrations of test compounds (final concentration: 1000 nM to 0.01 nM, 0.1% DMSO) for 4 days. The cells were lysed using PBS supplemented with 1 mM EDTA, 0.5% Triton X-100, 5 mM NaF, 6 M urea, and 1× Protease inhibitor cocktail. The lysate was analyzed for ER alpha protein using western blot. For the western blot, the cell lysate (12.5-40 μg total protein) was resolved on a 10% SDS PAGE and transferred onto a PVDF membrane. The blots were blocked using 5% skim milk powder in 0.1% PBS-T for 1 hour at room temperature, followed by co-incubation with rabbit anti-human β-actin antibody and rabbit anti-human ERα antibody for 2 hours at room temperature. The blots were subsequently probed with anti-rabbit IgG-HRP conjugate as secondary antibody for 1 hour at room temperature. The blots were developed by using West Pico Super Signal Chemiluminescence substrate and the bands were processed for densitometry analysis using Image Lab software (BioRad version 6.0.0). ERα band intensity was normalized to that housekeeping protein for respective samples. The % ER remaining was calculated by normalizing against the vehicle control (as 100%).

[2] = tested on: subcutaneous MCF7-Y537S xenografts; assay: In-vivo efficacy in MCF7-Y537S mice xenografts; parameters: species or system female athymic nude mice; settings: for % Tumor growth inhibition compared to vehicle group after 28 days: p.o., once daily
Method: In-Vivo Efficacy of Compound of Formula I and Compound of Formula Ia: […]
The efficacy of the compound of Formula I and the compound of Formula Ia were evaluated in female athymic nude mice harboring subcutaneous MCF7-Y537S xenografts. Dose formulations of the compound of Formula I and the compound of Formula Ia were prepared in Tween 80 (0.4% v/v of the total volume of suspension) in 0.5% w/v carboxymethylcellulose (CMC) and administered once daily orally for 28 days. Two perpendicular diameters of tumor were measured with digital Vernier caliper. Tumor volume (V) was calculated using the following equation: V=(a^2×b)/2, where “a” is the width of the tumor (small diameter), and “b” the length (large diameter), both in millimeters. Tumors were monitored twice weekly and compared with a vehicle treated group.

Row | Structure (SMILES) | SERD activity (in words) [1] | % of ER-α remaining at 1 nM [1] [%] | further results
1 | CC1=C(c2cc(F)cc(F)c2)C(c2ccc(/C=C/CN3CC(CF)C3)cc2)Oc2cc(O)ccc21 (racemic) [Formula I, 3-(3,5-difluorophenyl)-2-[4-[(E)-3-[3-(fluoromethyl)azetidin-1-yl]prop-1-enyl]phenyl]-4-methyl-2H-chromen-7-ol] |  |  | % Tumor growth inhibition compared to vehicle group after 28 days ([2]; 50 mg/kg): 46%; % Tumor growth inhibition compared to vehicle group after 28 days ([2]; 100 mg/kg): 57%; Tumor growth compared to the vehicle group (in words) ([2]; once daily orally for 28 days): significant reduction in the tumor growth
2 | CC1=C(c2cc(F)cc(F)c2)C(c2ccc(/C=C/CN3CC(CF)C3)cc2)Oc2ccc(O)cc21 (racemic) [Compound 2, 3-(3,5-difluorophenyl)-2-[4-[(E)-3-[3-(fluoromethyl)azetidin-1-yl]prop-1-enyl]phenyl]-4-methyl-2H-chromen-6-ol] | complete loss of the SERD activity | 100 | 
3 | CC1=C(c2cc(F)cc(F)c2)C(c2ccc(/C=C/CN3CC[C@@H](CF)C3)cc2)Oc2cc(O)ccc21 (mixture of isomers) [Compound 4, 3-(3,5-difluorophenyl)-2-[4-[(E)-3-[(3R)-3-(fluoromethyl)pyrrolidin-1-yl]prop-1-enyl]phenyl]-4-methyl-2H-chromen-7-ol] | negligible SERD activity |  | 
4 | CC1=C(c2cc(F)cc(F)c2)C(c2ccc(/C=C/CN3CC[C@@H](C)C3)cc2)Oc2cc(O)ccc21 (mixture of isomers) [Compound 5, 3-(3,5-difluorophenyl)-4-methyl-2-[4-[(E)-3-[(3R)-3-methylpyrrolidin-1-yl]prop-1-enyl]phenyl]-2H-chromen-7-ol] | negligible SERD activity |  | 
5 | CC1=C(c2cc(F)cc(F)c2)C(c2ccc(/C=C/CN3CCC(CF)CC3)cc2)Oc2cc(O)ccc21 (racemic) [Compound 3, 3-(3,5-difluorophenyl)-2-{4-[(E)-3-(4-fluoromethylpiperidin-1-yl)propenyl]phenyl}-4-methyl-2H-chromen-7-ol] | negligible SERD activity |  | 

More lines, main results first:

Row | SERD activity (in words) [1] | % of ER-α remaining at 1 nM [1] [%] | Structure (SMILES) | further results
6 | very negligible SERD activity | 80.8 | CC1=C(c2cc(F)cc(F)c2)C(c2ccc(/C=C\CN3CC(CF)C3)cc2)Oc2cc(O)ccc21 (racemic) [Compound 6, 3-(3,5-difluorophenyl)-2-{4-[(Z)-3-(3-fluoromethylazetidin-1-yl)propenyl]phenyl}-4-methyl-2H-chromen-7-ol] | 
7 | complete loss of SERD activity | 100 | CC1=C(c2cc(F)cc(F)c2)C(c2ccc(C#CCN3CC(CF)C3)cc2)Oc2cc(O)ccc21 (racemic) [Compound 7, 3-(3,5-difluorophenyl)-2-[4-[3-[3-(fluoromethyl)azetidin-1-yl]prop-1-ynyl]phenyl]-4-methyl-2H-chromen-7-ol] | 
